The numbers were not newly measured in patent publication USRE39151E1, “Process for the preparation and purification of thiol-containing maytansinoids” (Immunogen, Inc., priority 2000, dated 2006), which cites them from elsewhere.

For one data set, the system named is L1210 cells. The settings on record: L1210 cells treated in vivo; untreated control mitotic index 3.2 to 5.8%.
For data set [1] the following is noted: versus methotrexate, daunorubicin, and vincristine.
The test system of the next data set is tubulin. The following applies: sea urchin eggs and clam eggs.
For data set [2], the system named is P388 murine leukemic cell suspensions. The settings on record: in vitro, P388 cell suspension.
The subject of data set [3] is LY5178 murine leukemic cell suspensions. The settings on record: in vitro, LY5178 cell suspension.
Data set [4] has as its system B-16 melanocarcinoma system.
The test system of data set [5] is Lewis lung carcinoma system.
Data set [6] has as its system L1210 mouse leukemia system.
The subject of data set [7] is human acute lymphoblastic leukemia line C.E.M.
Data set [8] concerns L1210 murine leukemic cell suspensions. The settings on record: in vitro, L1210 cell suspension.
Data set [9] concerns human nasopharyngeal carcinoma cells.
For data set [10] the following is noted: patients.
Data set [11] has as its system P388 lymphocytic leukemia system. The settings on record: in vivo.

Take `COc1cc2cc(c1Cl)N(C)C(=O)C[C@H](OC(=O)[C@H](C)N(C)C(C)=O)[C@]1(C)O[C@H]1[C@H](C)[C@@H]1C[C@@](O)(NC(=O)O1)[C@H](OC)/C=C/C=C(\C)C2` [maytansine]: the “cells accumulating in mitosis” value in the data set on L1210 cells was 67%. In addition, in data set [1], the “fold more cytotoxic than conventional cancer chemotherapeutic agents” value was 100 to 1000 fold. Also, the “effect on mitosis / microtubule formation” value in the data set on tubulin is given as “inhibits mitosis by interfering with the formation of microtubules”. Moreover, the inhibitory dose in data set [2], in data set [3] and in data set [8] was 10^−3 to 10^−1 microgram/mL in each case. The “inhibitory activity in vivo” value in [4], in [5] and in data set [6] was “significant inhibitory activity” throughout. Besides, the inhibitory concentration in data set [7] is ≥ 10^−7 microgram/ml. The “inhibition of in vitro growth” value in data set [9] is on record as “active inhibitor”. In addition, the “adverse effects in clinical trials” value in data set [10] is recorded as “associated with peripheral neuropathy that might be cumulative”. Further, in data set [10], the “outcome of clinical trials” value was “not favorable due to a number of side effects”. The “dosage range over which tumor growth was inhibited” value in data set [11] is given as 50- to 100 fold.
